Results as given in US7323481B2, “Thiazolidinediones alone or in combination with other therapeutic agents for inhibiting or reducing tumour growth” (Hoffmann-La Roche Inc., priority 2001, dated 2008).

Key:
[1] = target: T1, PPAR gamma (Homo sapiens, UniProt P37231); assay: PPAR gamma stimulating activity (PPAR-mediated gene expression), alone and with 9-cis retinoic acid; assay type: cell-based; conditions: DMSO-treated cells = 1
T1 sequence (P37231 1-505): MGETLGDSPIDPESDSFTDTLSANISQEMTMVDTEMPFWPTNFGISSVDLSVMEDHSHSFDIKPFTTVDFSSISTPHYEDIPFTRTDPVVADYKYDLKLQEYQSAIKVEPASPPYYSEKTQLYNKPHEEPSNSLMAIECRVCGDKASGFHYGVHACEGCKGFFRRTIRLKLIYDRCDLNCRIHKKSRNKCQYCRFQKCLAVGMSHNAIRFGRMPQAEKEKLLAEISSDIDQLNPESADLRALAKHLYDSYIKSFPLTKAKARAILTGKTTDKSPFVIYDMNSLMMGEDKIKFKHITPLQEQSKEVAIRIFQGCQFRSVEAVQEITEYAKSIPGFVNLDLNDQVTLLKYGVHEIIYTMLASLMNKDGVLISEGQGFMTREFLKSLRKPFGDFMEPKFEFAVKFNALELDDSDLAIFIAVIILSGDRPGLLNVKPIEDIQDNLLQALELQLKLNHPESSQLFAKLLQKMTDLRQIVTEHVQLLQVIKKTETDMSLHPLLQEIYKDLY
Protocol: (§1) Female SCID beige mice were inoculated subcutaneously with 1×10^6 CX-1 human colon carcinoma cells. For 42 days 10 animals per group were orally treated with troglitazone, BM 13.1258 or BM 15.2054 (suspension in 0.5% methylcellulose). The development of tumor volume (measured in mm^3) was determined on day 45. Furthermore, following autopsy the lungs were histologically inspected for micrometastases. Inhibition of tumor growth and inhibition of number of pulmonal metastases were calculated as 100 minus tumor volume or number of metastases of the test group divided by that of the vehicle group expressed as a percentage. PPAR gamma stimulating activity of the compounds alone and in combination with the RXR specific agonist 9-cis retinoic acid were determined in accordance with a known method (Furnsinn, C., et al., Br. J. Pharmacol. 128 (1999) 1141-1148). The relative activation of PPAR-mediated gene expression is given as x-fold stimulation compared to DMSO-treated cells (activation=1).

[2] = test system: human cancer cells (breast cancer, colon cancer, prostate cancer); assay: Inhibition of cell proliferation in human cancer cells; assay type: cell-based; conditions: human cancer cells of various tissue origins, e.g. breast, colon and prostate cancer
[3] = test system: CX-1 human colon carcinoma cells; assay: CX-1 human colon carcinoma xenograft in SCID beige mice: tumor volume and pulmonal micrometastases; assay type: in vivo; conditions: for Inhibition relative to vehicle group (tumor volume): day 45; for Mean tumor volume: measured on day 45; for Number of metastases: lung micrometastases per group, histology after autopsy; for Effect on metastatic load: human xenograft models
Protocol: as §1

[4] = thiazolidinedione 10^−6 M in combination with 9-cis RA 10^−6 M
[5] = thiazolidinedione 10^−6 M, no 9-cis RA
[6] = thiazolidinedione 10^−7 M in combination with 9-cis RA 10^−6 M
[7] = thiazolidinedione 10^−7 M, no 9-cis RA

| Relative activation of PPAR-mediated gene expression [1, 4] [x-fold] | Relative activation of PPAR-mediated gene expression [1, 5] [x-fold] | Relative activation of PPAR-mediated gene expression [1, 6] [x-fold] | Relative activation of PPAR-mediated gene expression [1, 7] [x-fold] | SMILES | Inhibition of cell proliferation [2] | Inhibition relative to vehicle group (tumor volume) ([3]; 50 mg/kg oral for 42 days) [%] | Mean tumor volume ([3]; 50 mg/kg oral for 42 days) [mm^3] | Effect on metastatic load [3] | also measured |
| --- | --- | --- | --- | --- | --- | --- | --- | --- | --- |
| 18.5 | 3.5 | 15.6 | 4.3 | Cc1oc(-c2cccs2)nc1CCOc1ccc(CC2SC(=O)NC2=O)c2sccc12 (stereo not drawn) [BM 15.2054, 5-{4-[2-(5-Methyl-2-(thien-2-yl)oxazol-4-yl)-ethoxy]-benzo[b]thiophen-7-ylmethyl}-thiazolidine-2,4-dione] | inhibit cell proliferation | 28 | 719 | reduce the metastatic load | Inhibition relative to vehicle group (number of metastases) ([3]; 10 mg/kg oral for 42 days): 34%; Inhibition relative to vehicle group (tumor volume) ([3]; 10 mg/kg oral for 42 days): 30%; Mean tumor volume ([3]; 10 mg/kg oral for 42 days): 702 mm^3; Number of metastases ([3]; 10 mg/kg oral for 42 days): 216; Inhibition relative to vehicle group (number of metastases) ([3]; 50 mg/kg oral for 42 days): 32%; Number of metastases ([3]; 50 mg/kg oral for 42 days): 223; Number of lung metastases compared to the vehicle group ([3]; Table 2): significantly (p<0.05) reduced |
|  |  |  |  | CC1=C(/C=C/C(C)=C\C=C\C(C)=C\C(=O)O)C(C)(C)CCC1 [9-cis RA, 9-cis retinoic acid, reference compound] |  |  |  |  | Relative activation of PPAR-mediated gene expression ([1]; 9-cis RA 10^−6 M, no thiazolidinedione): 4.1 x-fold |
|  |  |  |  | Cc1c(C)c2c(c(C)c1O)CCC(C)(COc1ccc(CC3SC(=O)NC3=O)cc1)O2 (stereo not drawn) [Troglitazone, troglitazone, reference compound] |  |  |  |  | Inhibition relative to vehicle group (number of metastases) ([3]; 200 mg/kg oral for 42 days): −8%; Inhibition relative to vehicle group (tumor volume) ([3]; 200 mg/kg oral for 42 days): 20%; Mean tumor volume ([3]; 200 mg/kg oral for 42 days): 804 mm^3; Number of metastases ([3]; 200 mg/kg oral for 42 days): 352 |
| 28.0 | 4.0 | 24.4 | 3.7 | Cc1oc(-c2ccccc2)nc1CCOc1ccc(CC2SC(=O)NC2=O)c2sccc12 (stereo not drawn) [BM 13.1258, 5-{4-[2-(5-Methyl-2-phenyloxazol-4-yl) -ethoxy]-benzo[b]thiophen-7-ylmethyl}-thiazolidine-2,4-dione] | inhibit cell proliferation | 40 | 604 | reduce the metastatic load | Anti-tumor effect compared with troglitazone ([3]; SCID beige mice, Table 1): superior to that of troglitazone; Reduction of size of colon carcinoma ([3]; SCID beige mice, Table 1): effective in reducing the size of colon carcinoma |
